Experimental findings from US20230057568A1, “COMPOUNDS FOR TREATING FAMILIAL DYSAUTONOMIA” (PTC THERAPEUTICS, INC., priority 2019, published 2023) are described below.

This test concerns Elongator complex protein 1 (ELP1, also referred to as IKBKAP). Description: IKBKAP-HTRF Assay. To be noted: FD patient-derived fibroblasts GM04589, 48 hours incubation; for EC2x for IKBKAP protein expression (concentration producing two times the amount of IKBKAP protein vs DMSO vehicle control): 7-point concentration curve; for MFI (maximum fold increase in IKBKAP protein abundance relative to the vehicle control): HTRF. The format is cell-based, human. In short, it runs like this:
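FD patient cells in DMEM-10% FBS were treated 48 hours at 37 °C with a 7-point, 3.16-fold compound series in triplicate, then lysed. IKBKAP was quantified by sandwich HTRF with two anti-IKAP antibodies, incubated overnight at 4 °C and read at 665/620 nm. MFI is AF relative to vehicle, and EC2× is the concentration doubling IKBKAP versus DMSO.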

Take `Cc1c(C[C@H](C)N)sc2c(NCc3ccncc3F)nc(Cl)nc12` [Cpd 35, 6-[(2S)-2-aminopropyl]-2-chloro-N-[(3-fluoropyridin-4-yl)methyl]-7-methylthieno[3,2-d]pyrimidin-4-amine]: the “EC2x for IKBKAP protein expression (concentration producing two times the amount of IKBKAP protein vs DMSO vehicle control)” value is listed as “***** (<0.005 μM)” and the “MFI (maximum fold increase in IKBKAP protein abundance relative to the vehicle control)” value is recorded as “***** (>4.9)”.

On to `Cc1c(C[C@H](C)N)sc2c(NCc3nc(F)cs3)nc(Cl)nc12` [Cpd 92, 6-[(2S)-2-aminopropyl]-2-chloro-N-[(4-fluoro-1,3-thiazol-2-yl)methyl]-7-methylthieno[3,2-d]pyrimidin-4-amine], for which the “EC2x for IKBKAP protein expression (concentration producing two times the amount of IKBKAP protein vs DMSO vehicle control)” value is listed as “***** (<0.005 μM)” and the “MFI (maximum fold increase in IKBKAP protein abundance relative to the vehicle control)” value was “***** (>4.9)”.

Turning to `Cc1c(C[C@H](C)N)sc2c(NCc3ccco3)nc(Cl)nc12` [Cpd 12, 6-[(2S)-2-aminopropyl]-2-chloro-N-[(furan-2-yl)methyl]-7-methylthieno[3,2-d]pyrimidin-4-amine], the “EC2x for IKBKAP protein expression (concentration producing two times the amount of IKBKAP protein vs DMSO vehicle control)” value was “***** (<0.005 μM)” and the “MFI (maximum fold increase in IKBKAP protein abundance relative to the vehicle control)” value was “***** (>4.9)”.

For the compound `Cc1csc(CNc2nc(Cl)nc3c(C)c(C[C@H](C)N)sc23)n1` [Cpd 27, 6-[(2S)-2-aminopropyl]-2-chloro-7-methyl-N-[(4-methyl-1,3-thiazol-2-yl)methyl]thieno[3,2-d]pyrimidin-4-amine], the “EC2x for IKBKAP protein expression (concentration producing two times the amount of IKBKAP protein vs DMSO vehicle control)” value was “** (between >0.5 μL and ≤1 μM)”; the “MFI (maximum fold increase in IKBKAP protein abundance relative to the vehicle control)” value is “*** (between >2.9 and <3.9)”.

Take `CC(C)(C)[C@H](N)Cc1cc2nc(Cl)nc(NCc3ccco3)c2s1` [Cpd 7, 6-[(2R)-2-amino-3,3-dimethylbutyl]-2-chloro-N-[(furan-2-yl)methyl]thieno[3,2-d]pyrimidin-4-amine]: the “EC2x for IKBKAP protein expression (concentration producing two times the amount of IKBKAP protein vs DMSO vehicle control)” value is “** (between >0.5 μL and ≤1 μM)”; the “MFI (maximum fold increase in IKBKAP protein abundance relative to the vehicle control)” value was “* (MFI<1.9)”.

Consider `Cc1c(C[C@H](C)N)sc2c(NCc3nccs3)nc(Cl)nc12` [Cpd 29, 6-[(2S)-2-aminopropyl]-2-chloro-7-methyl-N-[(1,3-thiazol-2-yl)methyl]thieno[3,2-d]pyrimidin-4-amine], for which the “EC2x for IKBKAP protein expression (concentration producing two times the amount of IKBKAP protein vs DMSO vehicle control)” value was “***** (<0.005 μM)” and the “MFI (maximum fold increase in IKBKAP protein abundance relative to the vehicle control)” value was “***** (>4.9)”.

As for `Cc1csc2c(NCc3ccco3)nc(C(F)(F)F)nc12` [Cpd 25, N-[(furan-2-yl)methyl]-7-methyl-2-(trifluoromethyl)thieno[3,2-d]pyrimidin-4-amine], the “EC2x for IKBKAP protein expression (concentration producing two times the amount of IKBKAP protein vs DMSO vehicle control)” value is listed as “* (EC2×>1 μM)” and the “MFI (maximum fold increase in IKBKAP protein abundance relative to the vehicle control)” value is “* (MFI<1.9)”.

Consider `CC[C@H](N)Cc1cc2nc(Cl)nc(NCc3cccs3)c2s1` [Cpd 10, 6-[(2S)-2-aminobutyl]-2-chloro-N-[(thiophen-2-yl)methyl]thieno[3,2-d]pyrimidin-4-amine], for which the “EC2x for IKBKAP protein expression (concentration producing two times the amount of IKBKAP protein vs DMSO vehicle control)” value was “*** (between >0.02 μM and ≤0.5 μM)”; the “MFI (maximum fold increase in IKBKAP protein abundance relative to the vehicle control)” value was “**** (between >3.9 and <4.9)”.

As to `C[C@H](N)Cc1sc2c(NCc3ccncc3F)nc(Cl)nc2c1Br` [Cpd 68, 6-[(2S)-2-aminopropyl]-7-bromo-2-chloro-N-[(3-fluoropyridin-4-yl)methyl]thieno[3,2-d]pyrimidin-4-amine], the “EC2x for IKBKAP protein expression (concentration producing two times the amount of IKBKAP protein vs DMSO vehicle control)” value is given as “***** (<0.005 μM)” and the “MFI (maximum fold increase in IKBKAP protein abundance relative to the vehicle control)” value is given as “***** (>4.9)”.

`Clc1nc(NCc2cccs2)c2scc(Br)c2n1` [Cpd 80, 7-bromo-2-chloro-N-[(thiophen-2-yl)methyl]thieno[3,2-d]pyrimidin-4-amine]: the “EC2x for IKBKAP protein expression (concentration producing two times the amount of IKBKAP protein vs DMSO vehicle control)” value was “*** (between >0.02 μM and ≤0.5 μM)”; the “MFI (maximum fold increase in IKBKAP protein abundance relative to the vehicle control)” value is given as “***** (>4.9)”.

As to `Cc1c(C[C@H](C)N)sc2c(NCc3ncc[nH]3)nc(Cl)nc12` [Cpd 73, 6-[(2S)-2-aminopropyl]-2-chloro-N-[(1H-imidazol-2-yl)methyl]-7-methylthieno[3,2-d]pyrimidin-4-amine], the “EC2x for IKBKAP protein expression (concentration producing two times the amount of IKBKAP protein vs DMSO vehicle control)” value was “*** (between >0.02 μM and ≤0.5 μM)”; the “MFI (maximum fold increase in IKBKAP protein abundance relative to the vehicle control)” value was “** (between >1.9 and <2.9)”.

On to `CC[C@H](N)Cc1sc2c(NCc3nccs3)nc(Cl)nc2c1C` [Cpd 54, 6-[(2S)-2-aminobutyl]-2-chloro-7-methyl-N-[(1,3-thiazol-2-yl)methyl]thieno[3,2-d]pyrimidin-4-amine], for which the “EC2x for IKBKAP protein expression (concentration producing two times the amount of IKBKAP protein vs DMSO vehicle control)” value is listed as “***** (<0.005 μM)” and the “MFI (maximum fold increase in IKBKAP protein abundance relative to the vehicle control)” value is “***** (>4.9)”.

For `Cc1c(C[C@H](C)N)sc2c(NCc3ccc(F)s3)nc(Cl)nc12` [Cpd 33, 6-[(2S)-2-aminopropyl]-2-chloro-N-[(5-fluorothiophen-2-yl)methyl]-7-methylthieno[3,2-d]pyrimidin-4-amine], the “EC2x for IKBKAP protein expression (concentration producing two times the amount of IKBKAP protein vs DMSO vehicle control)” value was “**** (between >0.005 μM and ≤0.02 μM)”; the “MFI (maximum fold increase in IKBKAP protein abundance relative to the vehicle control)” value is “**** (between >3.9 and <4.9)”.

As for `Cc1c(C[C@H](C)N)sc2c(NCc3ccnn3C)nc(Cl)nc12` [Cpd 81, 6-[(2S)-2-aminopropyl]-2-chloro-7-methyl-N-[(1-methyl-1H-pyrazol-5-yl)methyl]thieno[3,2-d]pyrimidin-4-amine], the “EC2x for IKBKAP protein expression (concentration producing two times the amount of IKBKAP protein vs DMSO vehicle control)” value is recorded as “* (EC2×>1 μM)” and the “MFI (maximum fold increase in IKBKAP protein abundance relative to the vehicle control)” value was “* (MFI<1.9)”.

Turning to `Cc1c(C[C@H](C)N)sc2c(NCc3ncc(F)s3)nc(Cl)nc12` [Cpd 93, 6-[(2S)-2-aminopropyl]-2-chloro-N-[(5-fluoro-1,3-thiazol-2-yl)methyl]-7-methylthieno[3,2-d]pyrimidin-4-amine], the “EC2x for IKBKAP protein expression (concentration producing two times the amount of IKBKAP protein vs DMSO vehicle control)” value is “**** (between >0.005 μM and ≤0.02 μM)”; the “MFI (maximum fold increase in IKBKAP protein abundance relative to the vehicle control)” value is “***** (>4.9)”.

On to `CC(C)[C@H](N)Cc1cc2nc(Cl)nc(NCc3ccco3)c2s1` [Cpd 5, 6-[(2R)-2-amino-3-methylbutyl]-2-chloro-N-[(furan-2-yl)methyl]thieno[3,2-d]pyrimidin-4-amine], for which the “EC2x for IKBKAP protein expression (concentration producing two times the amount of IKBKAP protein vs DMSO vehicle control)” value is “*** (between >0.02 μM and ≤0.5 μM)”; the “MFI (maximum fold increase in IKBKAP protein abundance relative to the vehicle control)” value is “*** (between >2.9 and <3.9)”.

On to `CC[C@H](N)Cc1sc2c(NCc3sccc3F)nc(Cl)nc2c1C` [Cpd 91, 6-[(2S)-2-aminobutyl]-2-chloro-N-[(3-fluorothiophen-2-yl)methyl]-7-methylthieno[3,2-d]pyrimidin-4-amine], for which the “EC2x for IKBKAP protein expression (concentration producing two times the amount of IKBKAP protein vs DMSO vehicle control)” value is “**** (between >0.005 μM and ≤0.02 μM)”; the “MFI (maximum fold increase in IKBKAP protein abundance relative to the vehicle control)” value is “***** (>4.9)”.

Consider `Clc1nc(NCc2ccco2)c2sccc2n1` [Cpd 2, 2-chloro-N-[(furan-2-yl)methyl]thieno[3,2-d]pyrimidin-4-amine], for which the “EC2x for IKBKAP protein expression (concentration producing two times the amount of IKBKAP protein vs DMSO vehicle control)” value is recorded as “* (EC2×>1 μM)”; the “MFI (maximum fold increase in IKBKAP protein abundance relative to the vehicle control)” value was “*** (between >2.9 and <3.9)”.

Regarding `CC[C@H](N)Cc1sc2c(NCc3ccco3)nc(Cl)nc2c1C` [Cpd 13, 6-[(2S)-2-aminobutyl]-2-chloro-N-[(furan-2-yl)methyl]-7-methylthieno[3,2-d]pyrimidin-4-amine], the “EC2x for IKBKAP protein expression (concentration producing two times the amount of IKBKAP protein vs DMSO vehicle control)” value was “***** (<0.005 μM)” and the “MFI (maximum fold increase in IKBKAP protein abundance relative to the vehicle control)” value is on record as “***** (>4.9)”.

Turning to `CCc1c(C[C@H](C)N)sc2c(NCc3ccco3)nc(Cl)nc12` [Cpd 77, 6-[(2S)-2-aminopropyl]-2-chloro-7-ethyl-N-[(furan-2-yl)methyl]thieno[3,2-d]pyrimidin-4-amine], the “EC2x for IKBKAP protein expression (concentration producing two times the amount of IKBKAP protein vs DMSO vehicle control)” value is “**** (between >0.005 μM and ≤0.02 μM)”; the “MFI (maximum fold increase in IKBKAP protein abundance relative to the vehicle control)” value is given as “***** (>4.9)”.

`Cc1ccc(CNc2nc(Cl)nc3c(C)c(C[C@H](C)N)sc23)o1` [Cpd 24, 6-[(2S)-2-aminopropyl]-2-chloro-7-methyl-N-[(5-methylfuran-2-yl)methyl]thieno[3,2-d]pyrimidin-4-amine]: the “EC2x for IKBKAP protein expression (concentration producing two times the amount of IKBKAP protein vs DMSO vehicle control)” value is “*** (between >0.02 μM and ≤0.5 μM)”; the “MFI (maximum fold increase in IKBKAP protein abundance relative to the vehicle control)” value was “*** (between >2.9 and <3.9)”.

Regarding `C[C@H](N)Cc1sc2c(NCc3cccs3)nc(Cl)nc2c1-c1ccccc1` [Cpd 87, 6-[(2S)-2-aminopropyl]-2-chloro-7-phenyl-N-[(thiophen-2-yl)methyl]thieno[3,2-d]pyrimidin-4-amine], the “EC2x for IKBKAP protein expression (concentration producing two times the amount of IKBKAP protein vs DMSO vehicle control)” value was “* (EC2×>1 μM)” and the “MFI (maximum fold increase in IKBKAP protein abundance relative to the vehicle control)” value was “* (MFI<1.9)”.

`Cc1c(C[C@H](C)N)sc2c(NCc3ccco3)nc(C(N)=O)nc12` [Cpd 20, 6-[(2S)-2-aminopropyl]-4-{[(furan-2-yl)methyl]amino}-7-methylthieno[3,2-d]pyrimidine-2-carboxamide]: the “EC2x for IKBKAP protein expression (concentration producing two times the amount of IKBKAP protein vs DMSO vehicle control)” value was “* (EC2×>1 μM)”; the “MFI (maximum fold increase in IKBKAP protein abundance relative to the vehicle control)” value was “** (between >1.9 and <2.9)”.
